A short description of assay [1]: Growth inhibition of human PL45 cells at 5 uM after 24 hrs by [3H]thymidine uptake assay. It counts as functional. Particulars: read-out: GI.
The test system of assay [2] is HCT-116. Kind of assay: Growth inhibition of human HCT116 cells at 5 uM after 24 hrs by [3H]thymidine uptake assay. It counts as functional. Particulars: read-out: GI.

Each structure is given as a SMILES string. Residues, ends and D or L forms follow the SMILES beside them.

With `CC(C)C[C@@H]1NC(=O)[C@H](CC(C)C)NC(=O)[C@@H](Cc2ccccc2)NC(=O)[C@@H](CC(C)C)NC(=O)[C@@H](C(C)C)NC(=O)[C@@H](CC(C)C)NC(=O)[C@H](CC(C)C)NC(=O)[C@@H](Cc2ccccc2)NC(=O)[C@@H](CC(C)C)NC(=O)[C@@H](C(C)C)NC1=O`, the inhibition of growth at 5 µM is 8% in assay [1] and 0% in assay [2].
In the same order, the values of `CC(C)C[C@@H]1NC(=O)[C@H](CC(C)C)NC(=O)[C@@H](Cc2ccccc2)NC(=O)[C@@H](CC(C)C)NC(=O)[C@@H](C(C)C)NC(=O)[C@H](CC(C)C)NC(=O)[C@H](CC(C)C)NC(=O)[C@@H](Cc2ccccc2)NC(=O)[C@@H](CC(C)C)NC(=O)[C@@H](C(C)C)NC1=O` are 10% and 0%.
In the same order, the values of `CC(C)C[C@@H]1NC(=O)[C@H](Cc2ccccc2)NC(=O)[C@H](CC(C)C)NC(=O)[C@@H](C(C)C)NC(=O)[C@@H](CC(C)C)NC(=O)[C@H](CC(C)C)NC(=O)[C@H](Cc2ccccc2)NC(=O)[C@H](CC(C)C)NC(=O)[C@@H](C(C)C)NC(=O)[C@@H](CC(C)C)NC1=O` are 25% and 0%.
In the same order, the values of `CC(C)C[C@@H]1NC(=O)[C@H](Cc2ccccc2)NC(=O)[C@H](CC(C)C)NC(=O)[C@H](C(C)C)NC(=O)[C@@H](CC(C)C)NC(=O)[C@H](CC(C)C)NC(=O)[C@H](Cc2ccccc2)NC(=O)[C@H](CC(C)C)NC(=O)[C@H](C(C)C)NC(=O)[C@@H](CC(C)C)NC1=O` are 12% and 0%.
On to `CC(C)C[C@@H]1NC(=O)[C@H](Cc2ccccc2)NC(=O)[C@@H](CC(C)C)NC(=O)[C@@H](C(C)C)NC(=O)[C@H](CC(C)C)NC(=O)[C@@H](CC(C)C)NC(=O)[C@H](Cc2ccccc2)NC(=O)[C@@H](CC(C)C)NC(=O)[C@@H](C(C)C)NC(=O)[C@@H](CC(C)C)NC1=O`, for which the values for the inhibition of growth at 5 µM in assay [1] and in assay [2] were 4% and 0%, respectively.
In the same order, the values of `CC(C)C[C@@H]1NC(=O)[C@@H](Cc2ccccc2)NC(=O)[C@@H](CC(C)C)NC(=O)[C@@H](C(C)C)NC(=O)[C@@H](CC(C)C)NC(=O)[C@H](CC(C)C)NC(=O)[C@@H](Cc2ccccc2)NC(=O)[C@@H](CC(C)C)NC(=O)[C@@H](C(C)C)NC(=O)[C@@H](CC(C)C)NC1=O` are 79% and 40%.
In the same order, the values of `CC(C)C[C@@H]1NC(=O)[C@H](Cc2ccccc2)NC(=O)[C@H](CC(C)C)NC(=O)[C@@H](C(C)C)NC(=O)[C@H](CC(C)C)NC(=O)[C@H](CC(C)C)NC(=O)[C@H](Cc2ccccc2)NC(=O)[C@H](CC(C)C)NC(=O)[C@@H](C(C)C)NC(=O)[C@H](CC(C)C)NC1=O` are 30% and 0%.
In the same order, the values of `CC(C)C[C@@H]1NC(=O)[C@H](Cc2ccccc2)NC(=O)[C@@H](Cc2ccccc2)NC(=O)[C@@H](C(C)C)NC(=O)[C@H](CC(C)C)NC(=O)[C@H](CC(C)C)NC(=O)[C@H](Cc2ccccc2)NC(=O)[C@@H](Cc2ccccc2)NC(=O)[C@@H](C(C)C)NC(=O)[C@H](CC(C)C)NC1=O` are 13% and 16%.
For `CC(C)C[C@@H]1NC(=O)[C@H](CC(C)C)NC(=O)[C@@H](Cc2ccccc2)NC(=O)[C@@H](CC(C)C)NC(=O)[C@H](C(C)C)NC(=O)[C@H](CC(C)C)NC(=O)[C@H](CC(C)C)NC(=O)[C@@H](Cc2ccccc2)NC(=O)[C@@H](CC(C)C)NC(=O)[C@H](C(C)C)NC1=O`, the inhibition of growth at 5 µM turned out to be 36% in assay [1] and 0% in assay [2].
In the same order, the values of `CC(C)C[C@@H]1NC(=O)[C@H](Cc2ccccc2)NC(=O)[C@H](CC(C)C)NC(=O)[C@H](C(C)C)NC(=O)[C@H](CC(C)C)NC1=O` (cyclo(FLLVL)) are 25% and 33%.
On to `CC(C)C[C@@H]1NC(=O)[C@H](C(C)C)NC(=O)[C@H](CC(C)C)NC(=O)[C@@H](CC(C)C)NC(=O)[C@@H](Cc2ccccc2)NC(=O)[C@H](CC(C)C)NC(=O)[C@H](C(C)C)NC(=O)[C@H](CC(C)C)NC(=O)[C@@H](CC(C)C)NC(=O)[C@@H](Cc2ccccc2)NC1=O`, for which the figures for the inhibition of growth at 5 µM in assay [1] and in assay [2] were 12% and 0%, respectively.
In the same order, the values of `CC(C)C[C@@H]1NC(=O)[C@H](Cc2ccccc2)NC(=O)[C@@H](CC(C)C)NC(=O)[C@H](C(C)C)NC(=O)[C@@H](CC(C)C)NC(=O)[C@H](CC(C)C)NC(=O)[C@H](Cc2ccccc2)NC(=O)[C@@H](CC(C)C)NC(=O)[C@H](C(C)C)NC(=O)[C@@H](CC(C)C)NC1=O` are 9% and 0%.
In the same order, the values of `CC(C)C[C@@H]1NC(=O)[C@H](Cc2ccccc2)NC(=O)[C@@H](CC(C)C)NC(=O)[C@@H](C(C)C)NC(=O)[C@@H](CC(C)C)NC(=O)[C@H](CC(C)C)NC(=O)[C@@H](Cc2ccccc2)NC(=O)[C@@H](CC(C)C)NC(=O)[C@@H](C(C)C)NC(=O)[C@H](CC(C)C)NC1=O` are 15% and 0%.
For `CC(C)C[C@@H]1NC(=O)[C@H](Cc2ccccc2)NC(=O)[C@@H](CC(C)C)NC(=O)[C@@H](C(C)C)NC(=O)[C@@H](CC(C)C)NC(=O)[C@H](CC(C)C)NC(=O)[C@H](Cc2ccccc2)NC(=O)[C@@H](CC(C)C)NC(=O)[C@@H](C(C)C)NC(=O)[C@@H](CC(C)C)NC1=O` the same measures were 21% and 17%.
Turning to `CC(C)C[C@@H]1NC(=O)[C@H](Cc2ccccc2)NC(=O)[C@@H](CC(C)C)NC(=O)[C@@H](C(C)C)NC(=O)[C@H](CC(C)C)NC(=O)[C@@H](CC(C)C)NC(=O)[C@@H](Cc2ccccc2)NC(=O)[C@@H](CC(C)C)NC(=O)[C@@H](C(C)C)NC(=O)[C@@H](CC(C)C)NC1=O`, the inhibition of growth at 5 µM in assay [1] amounted to 17%; in assay [2] it was 0%.
For `CC(C)C[C@@H]1NC(=O)[C@H](Cc2ccccc2)NC(=O)[C@@H](CC(C)C)NC(=O)[C@@H](C(C)C)NC(=O)[C@@H](CC(C)C)NC(=O)[C@H](CC(C)C)NC(=O)[C@@H](Cc2ccccc2)NC(=O)[C@@H](CC(C)C)NC(=O)[C@@H](C(C)C)NC(=O)[C@@H](CC(C)C)NC1=O` the same measures were 12% and 0%.
For `CC(C)C[C@@H]1NC(=O)[C@H](CC(C)C)NC(=O)[C@@H](Cc2ccccc2)NC(=O)[C@H](CC(C)C)NC(=O)[C@H](C(C)C)NC(=O)[C@H](CC(C)C)NC(=O)[C@H](CC(C)C)NC(=O)[C@@H](Cc2ccccc2)NC(=O)[C@H](CC(C)C)NC(=O)[C@H](C(C)C)NC1=O` the same measures were 11% and 0%.
In the same order, the values of `CC(C)C[C@@H]1NC(=O)[C@H](C(C)C)NC(=O)[C@@H](CC(C)C)NC(=O)[C@@H](CC(C)C)NC(=O)[C@H](Cc2ccccc2)NC(=O)[C@H](CC(C)C)NC(=O)[C@H](C(C)C)NC(=O)[C@@H](CC(C)C)NC(=O)[C@@H](CC(C)C)NC(=O)[C@H](Cc2ccccc2)NC1=O` are 48% and 0%.
Consider `CC(C)C[C@@H]1NC(=O)[C@H](C(C)C)NC(=O)[C@@H](CC(C)C)NC(=O)[C@@H](Cc2ccccc2)NC(=O)[C@H](Cc2ccccc2)NC(=O)[C@H](CC(C)C)NC(=O)[C@H](C(C)C)NC(=O)[C@@H](CC(C)C)NC(=O)[C@@H](Cc2ccccc2)NC(=O)[C@H](Cc2ccccc2)NC1=O`, for which the inhibition of growth at 5 µM was 10% in assay [1] and 0% in assay [2].

For the origin of these results see ChEMBL document CHEMBL1154751, “Evaluation of di-sansalvamide A derivatives: synthesis, structure-activity relationship, and mechanism of action” (J Med Chem, 2009).
